Experimental data as given in the NIST ThermoML archive (doi:10.1016/j.fluid.2012.05.007).
Numbers after ± are expanded uncertainties.

What was measured:
[1] = mn = molality of the nth substance listed, in mol/kg; settings: for surface tension liquid-gas: Pendant drop shape; for viscosity / mass density: 101 kPa, Liquid; for viscosity: Capillary tube (Ostwald / Ubbelohde) method; for mass density: Pycnometric method
[2] = wn = mass fraction of the nth substance listed; settings: for viscosity / mass density: 101 kPa, Liquid; for viscosity: Capillary tube (Ostwald / Ubbelohde) method; for mass density: Pycnometric method; for surface tension liquid-gas: Pendant drop shape
[3] = 288.15 K

Compound: O=C([O-])CC(O)(CC(=O)[O-])C(=O)[O-].[K+].[K+].[K+] [potassium citrate] + O
- surface tension liquid-gas ([1]; 293.15 K, m1 = 0.45): 71.49 ± 2.5 mN/m
- surface tension liquid-gas ([1]; 293.15 K, m1 = 0.83): 75.75 ± 2.6 mN/m
- surface tension liquid-gas ([1]; 293.15 K, m1 = 1.16): 79.08 ± 2.8 mN/m
- surface tension liquid-gas ([1]; 293.15 K, m1 = 1.48): 81.1 ± 2.8 mN/m
- viscosity ([1]; 293.15 K, m1 = 0.45): 1.342 ± 0.016 mPa·s
- viscosity ([1]; 293.15 K, m1 = 0.83): 1.891 ± 0.022 mPa·s
- viscosity ([1]; 293.15 K, m1 = 1.16): 2.933 ± 0.035 mPa·s
- viscosity ([1]; 293.15 K, m1 = 1.48): 4.989 ± 0.058 mPa·s
- mass density ([1]; 293.15 K, m1 = 0.45): 1117.7 ± 1.2 kg/m3
- mass density ([1]; 293.15 K, m1 = 0.83): 1201.1 ± 1.3 kg/m3
- mass density ([1]; 293.15 K, m1 = 1.16): 1294.6 ± 1.4 kg/m3
- mass density ([1]; 293.15 K, m1 = 1.48): 1355.7 ± 1.4 kg/m3
- viscosity ([1]; 303.15 K, m1 = 0.45): 1.05 ± 0.012 mPa·s
- viscosity ([1]; 303.15 K, m1 = 0.83): 1.448 ± 0.017 mPa·s
- viscosity ([1]; 303.15 K, m1 = 1.16): 2.205 ± 0.026 mPa·s
- viscosity ([1]; 303.15 K, m1 = 1.48): 3.56 ± 0.042 mPa·s
- mass density ([1]; 303.15 K, m1 = 0.45): 1112.9 ± 1.2 kg/m3
- mass density ([1]; 303.15 K, m1 = 0.83): 1197.2 ± 1.3 kg/m3
- mass density ([1]; 303.15 K, m1 = 1.16): 1282.5 ± 1.4 kg/m3
- mass density ([1]; 303.15 K, m1 = 1.48): 1343.2 ± 1.4 kg/m3
- viscosity ([1]; 313.15 K, m1 = 0.45): 0.845 ± 0.01 mPa·s
- viscosity ([1]; 313.15 K, m1 = 0.83): 1.127 ± 0.013 mPa·s
- viscosity ([1]; 313.15 K, m1 = 1.16): 1.644 ± 0.019 mPa·s
- viscosity ([1]; 313.15 K, m1 = 1.48): 2.597 ± 0.031 mPa·s
- mass density ([1]; 313.15 K, m1 = 0.45): 1107.8 ± 1.2 kg/m3
- mass density ([1]; 313.15 K, m1 = 0.83): 1193.4 ± 1.3 kg/m3
- mass density ([1]; 313.15 K, m1 = 1.16): 1274.6 ± 1.4 kg/m3
- mass density ([1]; 313.15 K, m1 = 1.48): 1331.9 ± 1.4 kg/m3
- viscosity ([1]; 323.15 K, m1 = 0.45): 0.695 ± 0.008 mPa·s
- viscosity ([1]; 323.15 K, m1 = 0.83): 0.925 ± 0.011 mPa·s
- viscosity ([1]; 323.15 K, m1 = 1.16): 1.291 ± 0.015 mPa·s
- viscosity ([1]; 323.15 K, m1 = 1.48): 1.986 ± 0.024 mPa·s
- mass density ([1]; 323.15 K, m1 = 0.45): 1104.3 ± 1.2 kg/m3
- mass density ([1]; 323.15 K, m1 = 0.83): 1190.3 ± 1.3 kg/m3
- mass density ([1]; 323.15 K, m1 = 1.16): 1263.7 ± 1.4 kg/m3
- mass density ([1]; 323.15 K, m1 = 1.48): 1322.8 ± 1.4 kg/m3

Compound: CN(CCO)CCO [N-methyldiethanolamine] + O
- viscosity ([2]; 288.15 K, w1 = 0.1): 1.711 ± 0.02 mPa·s
- viscosity ([2]; 288.15 K, w1 = 0.2): 2.631 ± 0.03 mPa·s
- mass density ([2]; 288.15 K, w1 = 0.1): 1007.1 ± 1 kg/m3
- mass density ([2]; 288.15 K, w1 = 0.2): 1017.5 ± 1 kg/m3
- surface tension liquid-gas ([2]; 313.15 K, w1 = 0.1): 58.71 ± 2.1 mN/m
- surface tension liquid-gas ([2]; 313.15 K, w1 = 0.2): 54.68 ± 1.9 mN/m
- viscosity ([2]; 313.15 K, w1 = 0.1): 0.905 ± 0.011 mPa·s
- viscosity ([2]; 313.15 K, w1 = 0.2): 1.312 ± 0.016 mPa·s
- mass density ([2]; 313.15 K, w1 = 0.1): 1001.1 ± 1 kg/m3
- mass density ([2]; 313.15 K, w1 = 0.2): 1008.1 ± 1 kg/m3

Compound: O [water]
- surface tension liquid-gas ([3]; Pendant drop shape): 75.16 ± 2.6 mN/m
- viscosity ([3]; 101 kPa, Liquid, Capillary tube (Ostwald / Ubbelohde) method): 1.144 ± 0.013 mPa·s
